Measurements as given in patent EP2697230B1, “COMPOUNDS FOR THE TREATMENT OF HEPATITIS C” (priority 2011, dated 2012).

What follows are compounds tested on HCV pseudoparticles, genotype 1a HCV E1 and E2 envelope (H77C isolate) (assay: HCV pseudoparticle infection assay (luciferase reporter, Huh7 cells)). Conditions: Hepatitis C virus, Huh-7, 48 h, read-out: EC50 (nM) 1a (H77C), class symbol, HCV pseudoparticles genotype 1a (H77C), luciferase 2 days after infection.
Assay type: cell-based
With CC(C)OC(=O)N1CCCCOc2ccc(cc2)CNc2nc(nc(OCC(F)(F)F)n2)Nc2ccc(cc2)C(=O)NCCC1 [Example 4025] the EC50 was 0.1 to 100 nM. For CC(C)(C)OC(=O)N1CCCCOc2ccc(cc2)CNc2nc(nc(OCC(F)(F)F)n2)Nc2ccc(cc2)C(=O)NCCC1 [Example 4026], the EC50 was 0.1 to 100 nM. CNC(=O)N1CCCCOc2ccc(cc2)CNc2nc(nc(OCC(F)(F)F)n2)Nc2ccc(cc2)C(=O)NCCC1 [Example 4030] showed an EC50 of 0.1 to 100 nM. CCNC(=O)N1CCCCOc2ccc(cc2)CNc2nc(nc(OCC(F)(F)F)n2)Nc2ccc(cc2)C(=O)NCCC1 [Example 4031] was tested, and the EC50 was 0.1 to 100 nM. CC(C)NC(=O)N1CCCCOc2ccc(cc2)CNc2nc(nc(OCC(F)(F)F)n2)Nc2ccc(cc2)C(=O)NCCC1 [Example 4032] gave an EC50 of 0.1 to 100 nM. For CC(C)(C)NC(=O)N1CCCCOc2ccc(cc2)CNc2nc(nc(OCC(F)(F)F)n2)Nc2ccc(cc2)C(=O)NCCC1 [Example 4034], the EC50 was 0.1 to 100 nM. COCC(=O)N1CCCCNC(=O)c2ccc(cc2)Nc2nc(nc(OCC(F)(F)F)n2)NCc2ccc(cc2)OCC1 [Example 4035] showed an EC50 of 0.1 to 100 nM. CNC(=O)N1CCCCNC(=O)c2ccc(cc2)Nc2nc(nc(OCC(F)(F)F)n2)NC2(CC2)c2ccc(cc2)OCCC1 [Example 5004] gave an EC50 of 0.1 to 100 nM. CC(C)(C)OC(=O)N1CCCCNC(=O)c2ccc(cc2)Nc2nc(nc(OCC(F)(F)F)n2)NC2(CC2)c2ccc(cc2)OCCC1 [Example 5006] gave an EC50 of 0.1 to 100 nM. With CC(C)(C)OC(=O)N1CCCOc2ccc(cc2)CNc2nc(nc(OCC(F)(F)F)n2)Nc2ccc(cc2)C(=O)NCC1 [Example 6002] the EC50 was 0.1 to 100 nM. Compound COC(=O)N1CCCOc2ccc(cc2)CNc2nc(nc(OCC(F)(F)F)n2)Nc2ccc(cc2)C(=O)NCC1 [Example 6006] has an EC50 of 0.1 to 100 nM. O=C1NCCCNCCCOc2ccc(cc2)CNc2nc(nc(OCC(F)(F)F)n2)Nc2ccc1cc2 [Example 6011] showed an EC50 of 0.1 to 100 nM. For CCNC(=O)N1CCCNC(=O)c2ccc(cc2)Nc2nc(nc(OCC(F)(F)F)n2)NCc2ccc(cc2)OCCC1 [Example 6012], the EC50 was 0.1 to 100 nM. COC(=O)N1CCCNC(=O)c2ccc(cc2)Nc2nc(nc(OCC(F)(F)F)n2)NCc2ccc(cc2)OCCC1 [Example 6014] gave an EC50 of 0.1 to 100 nM. In the case of CCOC(=O)N1CCCNC(=O)c2ccc(cc2)Nc2nc(nc(OCC(F)(F)F)n2)NCc2ccc(cc2)OCCC1 [Example 6015], the EC50 is reported as 0.1 to 100 nM. CCCOC(=O)N1CCCNC(=O)c2ccc(cc2)Nc2nc(nc(OCC(F)(F)F)n2)NCc2ccc(cc2)OCCC1 [Example 6016] gave an EC50 of 0.1 to 100 nM. With CC(C)(C)OC(=O)N1CCCNC(=O)c2ccc(cc2)Nc2nc(nc(OCC(F)(F)F)n2)NCc2ccc(cc2)OCCC1 [Example 6017] the EC50 was 0.1 to 100 nM. Work on CN1CCCNC(=O)c2ccc(cc2)Nc2nc(nc(OCC(F)(F)F)n2)NCc2ccc(cc2)OCCC1 [Example 6018] yielded an EC50 of 0.1 to 100 nM. CCCCN1CCCNC(=O)c2ccc(cc2)Nc2nc(nc(OCC(F)(F)F)n2)NCc2ccc(cc2)OCCC1 [Example 6019] was tested, and the EC50 was 0.1 to 100 nM. CC(C)CN1CCCNC(=O)c2ccc(cc2)Nc2nc(nc(OCC(F)(F)F)n2)NCc2ccc(cc2)OCCC1 [Example 6020] was tested, and the EC50 was 0.1 to 100 nM. CNC(=O)N1CCCCNC(=O)c2ccc(cc2)Nc2nc(nc(OCC(F)(F)F)n2)NCc2ccc(cc2)OCCC1 [Example 6021] gave an EC50 of 0.1 to 100 nM. Work on CCNC(=O)N1CCCCNC(=O)c2ccc(cc2)Nc2nc(nc(OCC(F)(F)F)n2)NCc2ccc(cc2)OCCC1 [Example 6022] yielded an EC50 of 0.1 to 100 nM. CC(C)(C)NC(=O)N1CCCCNC(=O)c2ccc(cc2)Nc2nc(nc(OCC(F)(F)F)n2)NCc2ccc(cc2)OCCC1 [Example 6023] gave an EC50 of 0.1 to 100 nM. For CC1(C)CNCCCOc2ccc(cc2)CNc2nc(nc(OCC(F)(F)F)n2)Nc2ccc(cc2)C(=O)NC1 [Example 6024], the EC50 was 0.1 to 100 nM. For CC(C)N1CCCNC(=O)c2ccc(cc2)Nc2nc(nc(OCC(F)(F)F)n2)NCc2ccc(cc2)OCCC1 [Example 6025], the EC50 was 0.1 to 100 nM. CCN1CCCNC(=O)c2ccc(cc2)Nc2nc(nc(OCC(F)(F)F)n2)NCc2ccc(cc2)OCCC1 [Example 6026] was tested, and the EC50 was 0.1 to 100 nM. For CCCN1CCCNC(=O)c2ccc(cc2)Nc2nc(nc(OCC(F)(F)F)n2)NCc2ccc(cc2)OCCC1 [Example 6027], the EC50 was 0.1 to 100 nM. In the case of CCNC(=O)N1CCCOc2ccc(cc2)CNc2nc(nc(OCC(F)(F)F)n2)Nc2ccc(cc2)C(=O)NCC(C)(C)C1 [Example 6028], the EC50 is reported as 0.1 to 100 nM. Compound CCCNC(=O)N1CCCOc2ccc(cc2)CNc2nc(nc(OCC(F)(F)F)n2)Nc2ccc(cc2)C(=O)NCC(C)(C)C1 [Example 6030] has an EC50 of 0.1 to 100 nM. CC1(C)CNC(=O)c2ccc(cc2)Nc2nc(nc(OCC(F)(F)F)n2)NCc2ccc(cc2)OCCCN(C(=O)NC(C)(C)C)C1 [Example 6031] showed an EC50 of 0.1 to 100 nM. Work on COC(=O)N1CCCOc2ccc(cc2)CNc2nc(nc(OCC(F)(F)F)n2)Nc2ccc(cc2)C(=O)NCC(C)(C)C1 [Example 6032] yielded an EC50 of 0.1 to 100 nM. CCCOC(=O)N1CCCOc2ccc(cc2)CNc2nc(nc(OCC(F)(F)F)n2)Nc2ccc(cc2)C(=O)NCC(C)(C)C1 [Example 6034] showed an EC50 of 0.1 to 100 nM. Work on CC(C)OC(=O)N1CCCOc2ccc(cc2)CNc2nc(nc(OCC(F)(F)F)n2)Nc2ccc(cc2)C(=O)NCC(C)(C)C1 [Example 6035] yielded an EC50 of 0.1 to 100 nM. For CC1(C)CNC(=O)c2ccc(cc2)Nc2nc(nc(OCC(F)(F)F)n2)NCc2ccc(cc2)OCCCN(C(=O)OC(C)(C)C)C1 [Example 6036], the EC50 was 0.1 to 100 nM. CC(C)NC(=O)N1CCCOc2ccc(cc2)CNc2nc(nc(OCC(F)(F)F)n2)Nc2ccc(cc2)C(=O)NCC(C)(C)C1 [Example 6037] was tested, and the EC50 was 0.1 to 100 nM. CNC(=O)N1CCCOc2ccc(cc2)CNc2nc(nc(OCC(F)(F)F)n2)Nc2ccc(cc2)C(=O)NCC(C)(C)C1 [Example 6038] showed an EC50 of 0.1 to 100 nM. Work on CN1CCCOc2ccc(cc2)CNc2nc(nc(OCC(F)(F)F)n2)Nc2ccc(cc2)C(=O)NCC(C)(C)C1 [Example 6040] yielded an EC50 of 0.1 to 100 nM. CCN1CCCOc2ccc(cc2)CNc2nc(nc(OCC(F)(F)F)n2)Nc2ccc(cc2)C(=O)NCC(C)(C)C1 [Example 6041] was tested, and the EC50 was 0.1 to 100 nM. In the case of COC(=O)N1CCCCCCCCNc2nc(nc(OCC(F)(F)F)n2)Nc2ccc(cc2)C(=O)NCCC1 [Example 9003], the EC50 is reported as 0.1 to 100 nM. CCCOC(=O)N1CCCCCCCCNc2nc(nc(OCC(F)(F)F)n2)Nc2ccc(cc2)C(=O)NCCC1 [Example 9004] showed an EC50 of 0.1 to 100 nM. In the case of CNC(=O)N1CCCCCCCCNc2nc(nc(OCC(F)(F)F)n2)Nc2ccc(cc2)C(=O)NCCC1 [Example 9006], the EC50 is reported as 0.1 to 100 nM. With CC(C)(C)NC(=O)N1CCCCCCCCNc2nc(nc(OCC(F)(F)F)n2)Nc2ccc(cc2)C(=O)NCCC1 [Example 9008] the EC50 was 0.1 to 100 nM. For CC(=O)N1CCCCCCCCNc2nc(nc(OCC(F)(F)F)n2)Nc2ccc(cc2)C(=O)NCCC1 [Example 9009], the EC50 was 0.1 to 100 nM.

Same assay, conditions: Hepatitis C virus, Huh-7, 48 h, read-out: EC50 (nM) 1a (H77C), numeric value, HCV pseudoparticles genotype 1a (H77C), luciferase 2 days after infection
COCC(=O)N1CCCCNC(=O)c2ccc(cc2)Nc2nc(nc(OCC(F)(F)F)n2)NCc2ccc(cc2)OCC1 [Example 4035] gave an EC50 of 4.37 nM. CCNC(=O)N1CCCNC(=O)c2ccc(cc2)Nc2nc(nc(OCC(F)(F)F)n2)NCc2ccc(cc2)OCCC1 [Example 6012] was tested, and the EC50 was 6.1 nM. For COC(=O)N1CCCNC(=O)c2ccc(cc2)Nc2nc(nc(OCC(F)(F)F)n2)NCc2ccc(cc2)OCCC1 [Example 6014], the EC50 was 1.51 nM. For CCNC(=O)N1CCCCNC(=O)c2ccc(cc2)Nc2nc(nc(OCC(F)(F)F)n2)NCc2ccc(cc2)OCCC1 [Example 6022], the EC50 was 11.8 nM.

Same assay, conditions: class symbol, HCV pseudoparticles genotype 1a (H77C), luciferase 2 days after infection, read-out: EC50 (nM) 1a (H77C)
O=C1NCCCNCCCOc2ccc(cc2)C2(CC2)Nc2nc(nc(OCC(F)(F)F)n2)Nc2ccc1cc2 [Example 5001] gave an EC50 of 0.1 to 100 nM. In the case of O=C1NCCCNCCCCCCCCNc2nc(nc(OCC(F)(F)F)n2)Nc2ccc1cc2 [Example 9001], the EC50 is reported as 100 to 1000 nM.

Same assay, conditions: numeric value, HCV pseudoparticles genotype 1a (H77C), luciferase 2 days after infection, read-out: EC50 (nM) 1a (H77C)
In the case of O=C1NCCCNCCCCCCCCNc2nc(nc(OCC(F)(F)F)n2)Nc2ccc1cc2 [Example 9001], the EC50 is reported as 243 nM.
